Measurements reported in patent publication US8987502B2, “Oleanolic acid amidate derivatives, preparation methods and uses thereof” (Hangzhou Bensheng Pharmaceutical Co., Ltd., priority 2011, dated 2015).
Blank lines part the entries; values can stand above or below the compound they belong to.

Legend:
K562/adr = assay: MTT leukemia cell proliferation inhibition, K562/adr; type: cell-based; conditions: Homo sapiens, 72 h; for inhibition at 16 µg/mL: 16 μg/mL compound, read-out: IR (inhibition rate); for IC50: MTT
Text: (§1) Leukemia cell lines: leukemia cell lines: K562/adr (drug-resistant, chronic myeloid leukemia, CML), NB4 (acute promyelocytic leukemia, AML), Kasumi-1 (acute myeloid leukemia M2 type, AML-M2), Jurkat (acute lymphoblastic leukemia, ALL), all of which are donated by Cancer Research Institute of Zhejiang University, China; and H9 (acute lymphoblastic leukemia, ALL), which is purchased from China Center for Type Culture Collection (CCTCC).
(§2) Reagents: The standard sample of oleanolic acid (OA) is purchased from Hua Kang Pharmaceutical Raw Material Factory, Shifang City, Sichuan, China; and the amidated oleanolic acid derivatives are prepared according to the present invention.
(§3) Obtaining 6000 well-growing leukemia cells and inoculating them into wells of a 96-well cell culture plate. The culture medium is the 1640 cell culture medium containing 10% fetal bovine serum. After adding the amidated oleanolic acid derivatives of different concentrations and mixing uniformly, placing the plate in a carbon dioxide cell incubator (5% CO2) at 37° C. and incubated for 72 hours. Then the relative number of viable cells is determined by the MTT method. In this experiment, the cell proliferation inhibition rate in control group (not treated with any compound) is set as 0%.

A549 = assay: MTT solid tumor cell proliferation inhibition, A549; type: cell-based, human; conditions: Homo sapiens; for inhibition at 16 µg/mL: A549, 16 μg/mL compound, 72 h, read-out: IR (inhibition rate); for IC50: A549, 72 h, MTT
Procedure: (§4) Human solid tumor cell lines: Hep-2 (laryngeal carcinoma), A549 (human lung cancer), CaES-17 (esophageal cancer cell), PC-3 (prostate cancer), CNE (nasopharyngeal carcinoma cell), and SK-OV-3 (ovarian cancer cell), all of which are purchased from China Center For Type Culture Collection; RKO (human colon adenocarcinoma cell), MGC 803 (human gastric cancer cell), MG63 (osteosarcoma) and U87 MG (malignant glioma cell), all of which are purchased from Fuxiang Bio-tech Co. Ltd., Shanghai, China; PANC-1 (pancreatic cancer), Hep G2 (human liver cancer cell), Becap37 (human breast cancer cell), and Hela (human cervical cancer cell), all of which are donated by Cancer Research Institute of Zhejiang University, China.
(§5) Obtaining 4000 well-growing human solid tumor cells and inoculating them into wells of a 96-well cell culture plate. The culture medium is DMEM High Glucose cell culture medium containing 10% fetal bovine serum. The plate is placed in a carbon dioxide cell incubator (5% CO2) at 37° C. for 24 hours for incubation. After being added with the amidated oleanolic acid derivatives of different concentrations and mixed uniformly, the plate is placed in a carbon dioxide cell incubator (5% CO2) at 37° C. for 72 hours for incubation. Then the relative number of the living cells is determined by the MTT method. In this experiment, the cell proliferation inhibition rate in control group (not treated with any compound) is set as 0%.

NB4 = assay: MTT leukemia cell proliferation inhibition, NB4; type: cell-based; conditions: Homo sapiens, NB-4
Text: as §1, §2, §3

Kasumi-1 = assay: MTT leukemia cell proliferation inhibition, Kasumi-1; type: cell-based; conditions: Homo sapiens
Text: as §1, §2, §3

H9 = assay: MTT leukemia cell proliferation inhibition, H9; type: cell-based, human; conditions: Homo sapiens
Text: as §1, §2, §3

Jurkat = assay: MTT leukemia cell proliferation inhibition, Jurkat; type: cell-based; conditions: Homo sapiens, 72 h
Text: as §1, §2, §3

RPMI8226 = assay: MTT multiple myeloma cell proliferation inhibition, RPMI8226; type: cell-based; conditions: Homo sapiens, RPMI-8226
Procedure: Multiple myeloma cell lines: RPMI8226 (multiple myeloma), purchased from Fuxiang Bio-tech Co. Ltd., Shanghai, China.
as §3

PANC-1 = assay: MTT solid tumor cell proliferation inhibition, PANC-1; type: cell-based, human; conditions: Homo sapiens
Procedure: as §4, §5

Becap37 = assay: MTT solid tumor cell proliferation inhibition, Becap37; type: cell-based; conditions: Homo sapiens
Procedure: as §4, §5

MG 63 = assay: MTT solid tumor cell proliferation inhibition, MG 63; type: cell-based, human
Procedure: as §4, §5

Hep G2 = assay: MTT solid tumor cell proliferation inhibition, Hep G2; type: cell-based; conditions: Homo sapiens, HepG2
Procedure: as §4, §5

RKO = assay: MTT solid tumor cell proliferation inhibition, RKO; type: cell-based; conditions: Homo sapiens, 72 h
Procedure: as §4, §5

U87 MG = assay: MTT solid tumor cell proliferation inhibition, U87 MG; type: cell-based, human; conditions: Homo sapiens, U-87 MG, U87 MG, 72 h
Procedure: as §4, §5

Hela = assay: MTT solid tumor cell proliferation inhibition, Hela; type: cell-based, human; conditions: Homo sapiens, Hela, 72 h
Procedure: as §4, §5

CaES-17 = assay: MTT solid tumor cell proliferation inhibition, CaES-17; type: cell-based, human; conditions: Homo sapiens, CaEs17
Procedure: as §4, §5

CNE = assay: MTT solid tumor cell proliferation inhibition, CNE; type: cell-based, human; conditions: Homo sapiens, CNE, 72 h
Procedure: as §4, §5

Hep-2 = assay: MTT solid tumor cell proliferation inhibition, Hep-2; type: cell-based, human; conditions: Homo sapiens
Procedure: as §4, §5

MGC803 = assay: MTT solid tumor cell proliferation inhibition, MGC803; type: cell-based, human; conditions: Homo sapiens, MGC-803
Procedure: as §4, §5

PC-3 = assay: MTT solid tumor cell proliferation inhibition, PC-3; type: cell-based, human; conditions: Homo sapiens
Procedure: as §4, §5

SK-OV-3 = assay: MTT solid tumor cell proliferation inhibition, SK-OV-3; type: cell-based, human; conditions: Homo sapiens
Procedure: as §4, §5

[1] = 16 μg/mL compound, read-out: IR (inhibition rate)

IC50 (K562/adr): > 16 µg/mL
IC50 (A549): > 16 µg/mL
SMILES: CC1(C)CC[C@]2(NC(=O)/C=C/c3ccco3)CC[C@]3(C)C(=CC[C@@H]4[C@@]5(C)CC[C@H](O)C(C)(C)[C@@H]5CC[C@]43C)[C@@H]2C1 [BS-OA-100]
inhibition at 16 µg/mL (K562/adr): 38.8%
inhibition at 16 µg/mL (A549): 15.6%

IC50 (K562/adr): > 16 µg/mL
IC50 (NB4; NB4, 72 h, MTT): > 16 µg/mL
IC50 (Kasumi-1; Kasumi-1, 72 h, MTT): > 16 µg/mL
IC50 (H9; H9, 72 h, MTT): > 16 µg/mL
IC50 (Jurkat; MTT): > 16 µg/mL
IC50 (RPMI8226; RPMI8226, 72 h, MTT): > 16 µg/mL
IC50 (A549): > 16 µg/mL
IC50 (PANC-1; PANC-1, 72 h, MTT): > 16 µg/mL
IC50 (Becap37; Becap37, 72 h, MTT): > 16 µg/mL
IC50 (MG 63; Homo sapiens, MG 63, 72 h, MTT): > 16 µg/mL
IC50 (Hep G2; Hep G2, 72 h, MTT): > 16 µg/mL
IC50 (RKO; MTT): > 16 µg/mL
IC50 (U87 MG; MTT): > 16 µg/mL
IC50 (Hela; MTT): > 16 µg/mL
IC50 (CaES-17; CaES-17, 72 h, MTT): > 16 µg/mL
IC50 (CNE; MTT): > 16 µg/mL
IC50 (Hep-2; Hep-2, 72 h, MTT): > 16 µg/mL
IC50 (MGC803; MGC803, 72 h, MTT): > 16 µg/mL
IC50 (PC-3; PC-3, 72 h, MTT): > 16 µg/mL
IC50 (SK-OV-3; SK-OV-3, 72 h, MTT): > 16 µg/mL
SMILES: CC1(C)CC[C@]2(C(=O)O)CC[C@]3(C)C(=CC[C@@H]4[C@@]5(C)CC[C@H](O)C(C)(C)[C@@H]5CC[C@]43C)[C@@H]2C1 [OA, Oleanolic acid]
inhibition at 16 µg/mL (K562/adr): 26.5%
inhibition at 16 µg/mL (NB4; NB4, 16 μg/mL compound, 72 h, read-out: IR (inhibition rate)): 17.2%
inhibition at 16 µg/mL (Kasumi-1; Kasumi-1, 16 μg/mL compound, 72 h, read-out: IR (inhibition rate)): 17.2%
inhibition at 16 µg/mL (H9; H9, 16 μg/mL compound, 72 h, read-out: IR (inhibition rate)): 22.8%
inhibition at 16 µg/mL (Jurkat; [1]): 9.4%
inhibition at 16 µg/mL (RPMI8226; RPMI8226, 16 μg/mL compound, 72 h, read-out: IR (inhibition rate)): 2.2%
inhibition at 16 µg/mL (A549): 5%
inhibition at 16 µg/mL (PANC-1; PANC-1, 16 μg/mL compound, 72 h, read-out: IR (inhibition rate)): 8.5%
inhibition at 16 µg/mL (Becap37; Becap37, 16 μg/mL compound, 72 h, read-out: IR (inhibition rate)): 23.4%
IR (inhibition rate) (MG 63; MG 63, 16 μg/mL compound, 72 h): 29.2%
inhibition at 16 µg/mL (Hep G2; Hep G2, 16 μg/mL compound, 72 h, read-out: IR (inhibition rate)): -18.5%
inhibition at 16 µg/mL (RKO; [1]): 14.3%
inhibition at 16 µg/mL (U87 MG; [1]): 21.8%
inhibition at 16 µg/mL (Hela; [1]): 22.9%
inhibition at 16 µg/mL (CaES-17; CaES-17, 16 μg/mL compound, 72 h, read-out: IR (inhibition rate)): 27.4%
inhibition at 16 µg/mL (CNE; [1]): 33.9%
inhibition at 16 µg/mL (Hep-2; Hep-2, 16 μg/mL compound, 72 h, read-out: IR (inhibition rate)): 9.8%
inhibition at 16 µg/mL (MGC803; MGC803, 16 μg/mL compound, 72 h, read-out: IR (inhibition rate)): 19.7%
inhibition at 16 µg/mL (PC-3; PC-3, 16 μg/mL compound, 72 h, read-out: IR (inhibition rate)): 29.1%
inhibition at 16 µg/mL (SK-OV-3; SK-OV-3, 16 μg/mL compound, 72 h, read-out: IR (inhibition rate)): 8.3%
